Measured values as given in patent publication US5849779A, “Pyrazole derivatives and their pharmaceutical use” (Japan Energy Corporation, priority 1996, dated 1998).

Tests used:
[1] = tested on: Human coronary artery smooth muscle cells; assay: Inhibiting effect on PDGF-stimulated smooth muscle cell growth (3H-thymidine method); type: cell-based; conditions: PDGF-BB 20 ng/mL, 16 h
Procedure: Effect on PDGF-stimulated smooth muscle cell growth was estimated by the following method to verify inhibitory activity of the pyrazole derivative of the present invention against smooth muscle cell growth. (Test method)
Human coronary artery smooth muscle cells seeded on a 96-well plate (2×10^4 cell/well) were incubated in a complete medium consisting of a basal medium (SmGM-2: Iwaki Glass Co., Japan), FBS (5%), EGF (0.5 ng/mL), insulin (0.005 mg/mL), and basic-FGF (2 ng/mL) for 24 h until confluent. The medium was replaced by the basal medium followed by incubation for further 24 h to lead cells to GO stage.
The medium was replaced by a medium consisting of the basal medium and PDGF-BB (20 ng/mL) to induce PDGF-stimulated cell growth, and a DMSO solution of a test sample was added followed by incubation for 16 h. Then, inhibition of cell growth was estimated by a ^3 H-thymidine method as described in Example 22.
Tranilast was used as positive reference.

[2] = tested on: BALB/c 3T3 cells; assay: Inhibiting effect on PDGF-stimulated cell growth (3H-thymidine uptake); type: cell-based; conditions: Mus musculus, BALB/c3T3, PDGF-AA or PDGF-BB 10 ng/mL, 16 h; for inhibition at 3 µM: concentration 3 μM
Procedure: Effect on PDGF-stimulated cell growth was estimated by the following method using fibroblasts, growth of which is induced by PDGF in the same manner of smooth muscle cells to verify inhibitory activity of the pyrazole derivative of the present invention against PDGF-stimulated cell growth.
BALB/c 3T3 cells seeded on a 96-well plate (3-5×10^3 cell/well) were incubated in a high glucose Dulbecco's modified Eagle's medium (DME medium) containing 10% fetal bovine sera (FBS) for 2-3 days until confluent. The medium was replaced by high glucose DME medium containing 0.5% platelet poor plasma (PPP) followed by incubation for further 24 h.
The medium was replaced by high glucose DME medium containing PDGF-AA or PDGF-BB (10 ng/mL) to induce PDGF-stimulated cell growth, and a DMSO solution of a test sample was added followed by incubation for 16 h. Then, ^3 H-thymidine (1 mCi/ml) was 20-fold diluted by Ca^2+ and Mg^2+ free phosphate-bufferized saline, and 0.02 mL of the resulted solution was added followed by incubation for further 4 h. Final concentration of DMSO was not more than 0.25%.
After ^3 H-thymidine in the medium was washed out, cells were treated with trypsin/EDTA and collected using a cell-harvester. Amount of ^3 H-thymidine taken in the cells was measured by a liquid scintillation counter. […] Growth inhibition was estimated by difference of the amount of ^3 H-thymidine taken between the test incubation and the reference incubation.

[3] = tested on: smooth muscle cell; conditions: Atherosclerosis, 107, 179-185 (1994); cited from earlier work
[4] = tested on: re-narrowing; conditions: Rinsho Iyaku, 12, 65-85 (1996); cited from earlier work
[5] = tested on: smooth muscle cell; conditions: as reported in literature; cited from earlier work
[6] = tested on: hepatic function; conditions: clinical use; cited from earlier work

SMILES	IC50 [1]	inhibition at 3 µM [2]	also measured
CCOC(=O)c1cn(Cc2ccccc2)nc1NC(=O)NC(C)C [Example 8, N-isopropyl-N'-(1-benzyl-4-ethoxycarbonylpyrazol-3-yl)urea]	1300 nM		
CCCN(CCC)C(=O)Nc1nn(Cc2ccccc2)cc1C(=O)OCC [Example 15, N, N-dipropyl-N'-(1-benzyl-4-ethoxycarbonylpyrazol-3-yl)urea]	2200 nM		
CCCCn1cc(C(=O)OCC)c(NC(=S)Nc2ccccc2)n1 [Example 3, N-phenyl-N'-(1-butyl-4-ethoxycarbonylpyrazol-3-yl)thiourea]	1500 nM	89.5%	
COc1ccc(/C=C/C(=O)Nc2ccccc2C(=O)O)cc1OC [tranilast, N-(3,4-dimethoxycinnamoyl) anthranilic acid, reference compound]	5000 nM		inhibition at 10 µM ([2]; concentration 10 μM): 19.2%; inhibition at 30 µM ([2]; concentration 30 μM): 57.1%; inhibition at 100 µM ([2]; concentration 100 μM): 92.5%; inhibition of growth of smooth muscle cell [3]: inhibit growth of smooth muscle cell; prevention of clinical re-narrowing after percutaneous transluminal angioplasty [4]: prevent clinical re-narrowing after percutaneous transluminal angioplasty; inhibition of PDGF-stimulated smooth muscle cell growth [5]: reported to inhibit PDGF-stimulated smooth muscle cell growth; side effects on hepatic function [6]: often causes side effects on hepatic function
CCOC(=O)c1cn(Cc2ccccc2)nc1N(Cc1ccccc1)C(=O)Nc1ccccc1 [Example 18, N-phenyl-N'-benzyl-N'-(1-benzyl-4-ethoxycarbonylpyrazol-3-yl)urea]	3000 nM		
CCCNC(=O)Nc1c(C(=O)OCC)cnn1-c1ccccc1 [Example 7, N-propyl-N'-(4-ethoxycarbonyl-1-phenylpyrazol-5-yl)urea]		36.4%	
CCCNC(=O)Nc1nn(Cc2ccccc2)cc1C(=O)OCC [Example 1, N-propyl-N'-(1-benzyl-4-ethoxycarbonylpyrazol-3-yl)urea]	2300 nM	84.5%	
CCCCn1cc(C(=O)OCC)c(NC(=O)Nc2ccccc2)n1 [Example 2, N-phenyl-N'-(1-butyl-4-ethoxycarbonylpyrazol-3-yl)urea]	3100 nM	81.9%	
CCOC(=O)c1cnn(-c2ccccc2)c1NC(=O)Nc1ccccc1 [Example 6, N-phenyl-N'-(4-ethoxycarbonyl-1-phenylpyrazol-5-yl)urea]		49.9%	
CCOC(=O)c1cn(Cc2ccccc2)nc1NC(=O)N(c1ccccc1)c1ccccc1 [Example 16, N, N-diphenyl-N'-(1-benzyl-4-ethoxycarbonylpyrazol-3-yl)urea]	1100 nM		
